{
  "source": "paper PMC6804824",
  "about": "“Volatile composition and classification of Lilium flower aroma types and identification, polymorphisms, and alternative splicing of their monoterpene synthase genes” (Horticulture Research, 2019)",
  "assay_in_all_cases": "GC-MS product analysis (SPME)",
  "assay_type_in_all_cases": "biochemical",
  "conditions_in_all_cases": "30 uM GPP, 10 mM MgCl2, pH 7.2, 30 C, 3 h; products (E)-beta-ocimene, alpha-pinene, limonene; results call protein purified, methods use sonicated cells",
  "key": {"LsoTPS-2": {"molecular_target": "T1, LsoTPS-2 (Lilium hybrid cultivar, UniProt A0A2H4R3S6)", "T1 construct": "gene TPS; full length, 590 aa (ORF 1773 bp), plastid transit peptide intact; pTYB12 fusion vector; E. coli BL21(DE3); about 68 kDa", "T1 sequence (A0A2H4R3S6 1-590)": "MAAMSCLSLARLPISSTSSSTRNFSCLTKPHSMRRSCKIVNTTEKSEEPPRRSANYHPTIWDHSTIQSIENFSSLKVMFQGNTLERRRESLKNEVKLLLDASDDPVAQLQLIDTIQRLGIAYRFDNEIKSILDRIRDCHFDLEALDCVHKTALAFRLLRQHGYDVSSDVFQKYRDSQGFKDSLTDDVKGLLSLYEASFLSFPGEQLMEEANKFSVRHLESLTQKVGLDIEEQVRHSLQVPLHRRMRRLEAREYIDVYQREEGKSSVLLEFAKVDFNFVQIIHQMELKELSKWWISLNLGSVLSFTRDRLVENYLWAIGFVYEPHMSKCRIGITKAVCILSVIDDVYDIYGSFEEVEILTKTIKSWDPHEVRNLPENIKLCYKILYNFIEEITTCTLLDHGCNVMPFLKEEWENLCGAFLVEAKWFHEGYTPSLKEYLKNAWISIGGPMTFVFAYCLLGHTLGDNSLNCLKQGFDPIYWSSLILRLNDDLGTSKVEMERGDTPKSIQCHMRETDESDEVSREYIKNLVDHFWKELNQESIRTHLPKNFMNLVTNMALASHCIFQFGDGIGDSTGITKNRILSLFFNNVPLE"}, "LrlTPS-3": {"molecular_target": "T2, LrlTPS-3 (Lilium hybrid cultivar, UniProt A0A6M2RDN4)", "T2 construct": "full length, 548 aa (ORF 1647 bp), plastid transit peptide intact; pTYB12 fusion vector; E. coli BL21(DE3); about 62 kDa", "T2 sequence (A0A6M2RDN4 1-548)": "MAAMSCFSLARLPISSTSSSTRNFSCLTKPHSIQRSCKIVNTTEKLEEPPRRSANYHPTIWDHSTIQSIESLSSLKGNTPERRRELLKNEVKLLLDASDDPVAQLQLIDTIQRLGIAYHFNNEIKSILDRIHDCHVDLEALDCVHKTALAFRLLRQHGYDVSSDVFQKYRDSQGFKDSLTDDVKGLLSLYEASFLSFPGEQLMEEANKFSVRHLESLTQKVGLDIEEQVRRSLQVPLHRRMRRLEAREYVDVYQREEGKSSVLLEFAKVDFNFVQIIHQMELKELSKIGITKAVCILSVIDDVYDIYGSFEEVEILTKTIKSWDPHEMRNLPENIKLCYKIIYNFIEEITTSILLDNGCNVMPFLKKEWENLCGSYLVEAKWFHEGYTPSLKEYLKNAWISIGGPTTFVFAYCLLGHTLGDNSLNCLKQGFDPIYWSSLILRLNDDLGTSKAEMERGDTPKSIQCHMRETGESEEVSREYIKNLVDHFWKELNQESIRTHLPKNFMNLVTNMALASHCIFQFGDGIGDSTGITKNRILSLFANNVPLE"}, "LsoTPS-1 / LrlTPS-1": {"molecular_target": "T3, LsoTPS-1 / LrlTPS-1 (Lilium hybrid cultivar, UniProt A0A6M2RDI7)", "T3 construct": "full length, 586 aa (ORF 1761 bp), plastid transit peptide intact; pTYB12 fusion vector; E. coli BL21(DE3); about 67 kDa", "T3 sequence (A0A6M2RDI7 1-586)": "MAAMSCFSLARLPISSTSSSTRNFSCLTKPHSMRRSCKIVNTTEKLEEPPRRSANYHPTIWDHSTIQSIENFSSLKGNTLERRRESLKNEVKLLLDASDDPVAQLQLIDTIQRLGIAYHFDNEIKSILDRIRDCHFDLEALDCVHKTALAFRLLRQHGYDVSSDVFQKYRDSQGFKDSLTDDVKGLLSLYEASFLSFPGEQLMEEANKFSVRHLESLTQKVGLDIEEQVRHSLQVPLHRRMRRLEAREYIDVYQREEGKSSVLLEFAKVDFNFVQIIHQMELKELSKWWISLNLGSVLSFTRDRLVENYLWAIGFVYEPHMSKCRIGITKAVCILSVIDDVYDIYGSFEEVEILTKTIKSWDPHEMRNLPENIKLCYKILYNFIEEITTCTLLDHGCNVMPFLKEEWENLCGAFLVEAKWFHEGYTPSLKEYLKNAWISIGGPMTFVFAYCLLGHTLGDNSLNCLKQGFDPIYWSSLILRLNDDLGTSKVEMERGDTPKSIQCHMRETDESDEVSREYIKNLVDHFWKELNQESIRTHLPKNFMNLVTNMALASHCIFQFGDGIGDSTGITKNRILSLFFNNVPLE"}, "LsoTPS-3": {"molecular_target": "T4, LsoTPS-3 (Lilium hybrid cultivar, UniProt A0A6M2RCV8)", "T4 construct": "full length, 548 aa (ORF 1647 bp), plastid transit peptide intact; pTYB12 fusion vector; E. coli BL21(DE3); about 62 kDa", "T4 sequence (A0A6M2RCV8 1-548)": "T2 sequence (A0A6M2RDN4 1-548) with P80L, R231H"}},
  "note": "Substitutions are numbered along the chain they refer to.",
  "data": [
    {"smiles": "CC(C)=CCC/C(C)=C/COP(=O)(O)OP(=O)(O)O", "note": "[GPP]", "values": [
      {"measurement": "GC-MS product analysis (SPME)", "setting": "LsoTPS-2", "value": "all five proteins were able to convert GPP into (E)-β-ocimene, α-pinene, and limonene"},
      {"measurement": "GC-MS product analysis (SPME)", "setting": "LrlTPS-3", "value": "all five proteins were able to convert GPP into (E)-β-ocimene, α-pinene, and limonene"},
      {"measurement": "GC-MS product analysis (SPME)", "setting": "LsoTPS-1 / LrlTPS-1", "value": "all five proteins were able to convert GPP into (E)-β-ocimene, α-pinene, and limonene"},
      {"measurement": "GC-MS product analysis (SPME)", "setting": "LsoTPS-3", "value": "all five proteins were able to convert GPP into (E)-β-ocimene, α-pinene, and limonene"}
    ]}
  ]
}
